Experiments:
[1] = test system: MOLP-8 human multiple myeloma cell line; test: Caspase-Glo 3/7 apoptosis induction assay in MOLP-8 cells; format: cell-based; settings: Homo sapiens, MOLP-8, 2 h, caspase-3/7 activity, 2 hours at 37° C.; averaged over all runs on all batches; read-out: MOLP8 AC50
Method in brief: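 MOLP-8 cells were treated for 2 h at 37° C with 10-dose, 1/3 serial dilutions ([…], 0.5% DMSO final, duplicates). Caspase-3/7 activity was read by Caspase-Glo luminescence 30 min after reagent addition. % effect was normalised between low (1% DMSO) and high (positive control) controls.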

[2] = molecular target: Myeloid Cell Leukemia 1(Mcl-1) (Homo sapiens, UniProt Q07820); test: Terbium labeled Mcl-1 HTRF binding assay with Cy5-labeled BIM BH3 peptide; settings: displacement of Cy5 Bim BH3 peptide; Ki=IC50/(1+[L]/Kd), [L]=8 nM, Kd=10 nM; 60 minutes at room temperature; read-out: Tb-MCL1 Ki
Sequence of Myeloid Cell Leukemia 1(Mcl-1) (Q07820 whole entry): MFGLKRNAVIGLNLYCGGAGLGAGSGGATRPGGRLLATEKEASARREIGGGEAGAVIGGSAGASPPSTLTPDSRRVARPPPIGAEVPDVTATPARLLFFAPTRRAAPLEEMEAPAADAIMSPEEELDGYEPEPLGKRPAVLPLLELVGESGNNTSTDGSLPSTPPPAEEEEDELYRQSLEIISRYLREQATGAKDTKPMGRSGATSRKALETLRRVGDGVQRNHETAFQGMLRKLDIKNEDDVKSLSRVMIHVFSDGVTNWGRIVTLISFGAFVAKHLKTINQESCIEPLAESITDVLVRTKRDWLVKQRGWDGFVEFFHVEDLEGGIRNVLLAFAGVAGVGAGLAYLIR
Method in brief: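 TR-FRET displacement of Cy5-BIM BH3 peptide (8 nM; Kd 10 nM) from 25 pM Tb-labelled Mcl-1 in 10 mM Tris-HCl pH 7.5, 150 mM NaCl, 2 mM DTT, 0.0025% Tween-20, 0.1 mg/mL BSA, 1% DMSO. 60 min at room temperature; 665/620 nm ratio normalized to controls, IC50 from 11-point curve.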

Row | Compound | AC50 [1] | Ki [2]
1 | C[C@@H]1[C@@H](C)C/C=C(\F)[C@H](C(=O)N(C)C2CCCOC2)N2CCC[C@H]2CN2C[C@@]3(CCCc4cc(Cl)ccc43)COc3ccc(cc32)C(=O)NS1(=O)=O (stereo partly shown) [Compound 58] | 55.7 nM | 0.041 nM
2 | COCCN(CC1CCOCC1)C(=O)[C@H]1/C(F)=C/C[C@H](C)[C@@H](C)S(=O)(=O)NC(=O)c2ccc3c(c2)N(C[C@@H]2CCCN21)C[C@@]1(CCCc2cc(Cl)ccc21)CO3 [Compound 59] | 33.4 nM | 0.06 nM
3 | CO[C@H]1CN(C(=O)[C@H]2/C(F)=C/C[C@H](C)[C@@H](C)S(=O)(=O)NC(=O)c3ccc4c(c3)N(C[C@@H]3CCCN32)C[C@@]2(CCCc3cc(Cl)ccc32)CO4)C[C@H]1OC [Compound 60] | 92.3 nM | 0.022 nM
4 | C[C@@H]1[C@@H](C)C/C=C(\F)[C@H](C(=O)N(C)CCn2cccn2)N2CCC[C@H]2CN2C[C@@]3(CCCc4cc(Cl)ccc43)COc3ccc(cc32)C(=O)NS1(=O)=O [Compound 61] | 166 nM | 0.074 nM
5 | C[C@@H]1[C@@H](C)C/C=C(\F)[C@H](C(=O)N(C)Cc2nnnn2C)N2CCC[C@H]2CN2C[C@@]3(CCCc4cc(Cl)ccc43)COc3ccc(cc32)C(=O)NS1(=O)=O [Compound 66] | 357 nM | 0.025 nM
6 | C[C@@H]1[C@@H](C)C/C=C(\F)[C@H](C(=O)N(C)Cc2nnn(C)n2)N2CCC[C@H]2CN2C[C@@]3(CCCc4cc(Cl)ccc43)COc3ccc(cc32)C(=O)NS1(=O)=O [Compound 67] | 120 nM | 0.037 nM
7 | COCCCN(CCOC)C(=O)[C@H]1/C(F)=C/C[C@H](C)[C@@H](C)S(=O)(=O)NC(=O)c2ccc3c(c2)N(C[C@@H]2CCCN21)C[C@@]1(CCCc2cc(Cl)ccc21)CO3 [Compound 70] | 41.9 nM | 0.028 nM
8 | COCCN(CCOC)CCN(C)C(=O)[C@H]1/C(F)=C/C[C@H](C)[C@@H](C)S(=O)(=O)NC(=O)c2ccc3c(c2)N(C[C@@H]2CCCN21)C[C@@]1(CCCc2cc(Cl)ccc21)CO3 [Compound 73] | 91.4 nM | 0.021 nM
9 | C[C@@H]1[C@@H](C)C/C=C(\F)[C@H](C(=O)N(CCO)CCN2CCOCC2)N2CCC[C@H]2CN2C[C@@]3(CCCc4cc(Cl)ccc43)COc3ccc(cc32)C(=O)NS1(=O)=O [Compound 74] | 436 nM | 0.02 nM
10 | C[C@@H]1[C@@H](C)C/C=C(\F)[C@H](C(=O)N(C)CCN2CCCOCC2)N2CCC[C@H]2CN2C[C@@]3(CCCc4cc(Cl)ccc43)COc3ccc(cc32)C(=O)NS1(=O)=O [Compound 75] | 83 nM | 0.022 nM
11 | COCCN(CCN1CCOCC1)C(=O)[C@H]1/C(F)=C/C[C@H](C)[C@@H](C)S(=O)(=O)NC(=O)c2ccc3c(c2)N(C[C@@H]2CCCN21)C[C@@]1(CCCc2cc(Cl)ccc21)CO3 [Compound 76] | 36.7 nM | 0.017 nM
12 | COCCN(CCOC)C(=O)[C@H]1/C(F)=C/C[C@H](C)[C@@H](C)S(=O)(=O)NC(=O)c2ccc3c(c2)N(C[C@@H]2CCCN21)C[C@@]1(CCOc2cc(Cl)ccc21)CO3 [Compound 77] | 144 nM | 0.027 nM
13 | C[C@@H]1[C@@H](C)C/C=C(\F)[C@H](C(=O)N(C)CCN2CCOCC2)N2CCC[C@H]2CN2C[C@@]3(CCOc4cc(Cl)ccc43)COc3ccc(cc32)C(=O)NS1(=O)=O [Compound 78] | 547 nM | 0.016 nM
14 | C[C@@H]1[C@@H](C)C/C=C(\F)[C@H](C(=O)N(C)CC2OCCO2)N2CCC[C@H]2CN2C[C@@]3(CCCc4cc(Cl)ccc43)COc3ccc(cc32)C(=O)NS1(=O)=O [Compound 79] | 106 nM | 0.038 nM
15 | Cc1nc(CN(C)C(=O)[C@H]2/C(F)=C/C[C@H](C)[C@@H](C)S(=O)(=O)NC(=O)c3ccc4c(c3)N(C[C@@H]3CCCN32)C[C@@]2(CCCc3cc(Cl)ccc32)CO4)co1 [Compound 80] | 134 nM | 0.079 nM
16 | C[C@@H]1[C@@H](C)C/C=C(\F)[C@H](C(=O)N(C)Cc2ncnn2C)N2CCC[C@H]2CN2C[C@@]3(CCCc4cc(Cl)ccc43)COc3ccc(cc32)C(=O)NS1(=O)=O [Compound 81] | 537 nM | 0.068 nM
17 | CCS(=O)(=O)CCN(C)C(=O)[C@H]1/C(F)=C/C[C@H](C)[C@@H](C)S(=O)(=O)NC(=O)c2ccc3c(c2)N(C[C@@H]2CCCN21)C[C@@]1(CCCc2cc(Cl)ccc21)CO3 [Compound 82] | 557 nM | 0.025 nM
18 | C[C@@H]1[C@@H](C)C/C=C(\F)[C@H](C(=O)N2CCN(C)C3(CC3)C2)N2CCC[C@H]2CN2C[C@@]3(CCCc4cc(Cl)ccc43)COc3ccc(cc32)C(=O)NS1(=O)=O [Compound 83] | 252 nM | 0.061 nM
19 | C[C@@H]1[C@@H](C)C/C=C(\F)[C@H](C(=O)N2CC(C)(N3CCOCC3)C2)N2CCC[C@H]2CN2C[C@@]3(CCCc4cc(Cl)ccc43)COc3ccc(cc32)C(=O)NS1(=O)=O [Compound 84] | 317 nM | 0.04 nM
20 | COCCN1CCC(CN(C)C(=O)[C@H]2/C(F)=C/C[C@H](C)[C@@H](C)S(=O)(=O)NC(=O)c3ccc4c(c3)N(C[C@@H]3CCCN32)C[C@@]2(CCCc3cc(Cl)ccc32)CO4)CC1 [Compound 85] | 759 nM | 0.025 nM
21 | C[C@@H]1[C@@H](C)C/C=C(\F)C(CO)(C(=O)N(C)CCN2CCOCC2)N2CCC[C@H]2CN2C[C@@]3(CCCc4cc(Cl)ccc43)COc3ccc(cc32)C(=O)NS1(=O)=O (stereo partly shown) [Compound 86] | 1600 nM | 0.032 nM
22 | C[C@@H]1[C@@H](C)C/C=C(\F)[C@H](C(=O)N(C)CCN2CC(F)(F)C2)N2CCC[C@H]2CN2C[C@@]3(CCCc4cc(Cl)ccc43)COc3ccc(cc32)C(=O)NS1(=O)=O [Compound 87] | 84.8 nM | 0.071 nM
23 | COCCN(CCOC)C(=O)[C@H]1/C(F)=C/C[C@H](C)CS(=O)(=O)NC(=O)c2ccc3c(c2)N(C[C@@H]2CCCN21)C[C@@]1(CCCc2cc(Cl)ccc21)CO3 [Compound 88] | 116 nM | 0.029 nM

Source: patent publication US20230219906A1, “MACROCYCLIC-2-AMINO-3-FLUORO-BUT-3-ENAMIDES AS INHIBITORS OF MCL-1” (Janssen Pharmaceutica NV, priority 2020, published 2023)
